One test has as its target T1, KRAS_WT and SOS1 (Homo sapiens, UniProt P01116).
T1 construct: purchased
Nature of the test: Inhibition of KRAS_WT/SOS1 binding (Cisbio binding kit, 665/615 ratio), Effect Embodiment C. To be noted: read-out: GTP-KRAS-WT:SOS1 IC50. The gist of the method:
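Compounds tested as 3-fold, 11-point dilutions in duplicate at 1% DMSO final against the KRAS_WT/SOS1 binding system. IC50 derived by nonlinear regression fit.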

The target of a further test is T2, KRAS-G12D and SOS1 (Homo sapiens, UniProt P01116, G12D).
T2 construct: purchased
Briefly: Inhibition of KRAS-G12D/SOS1 binding (Cisbio binding kit, 665/615 ratio), Effect Embodiment A. The following applies: read-out: GTP-KRAS-G12D:SOS1 IC50. The gist of the method:
(§1)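 Compounds are tested over eleven threefold dilution steps in duplicate, with final DMSO at 1%.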

In the next test the target is T3, KRAS_G12D and cRAF (Homo sapiens, UniProt P01116, G12D).
T3 construct: purchased
Nature of the test: Inhibition of KRAS_G12D/cRAF binding (Cisbio binding kit, 665/615 ratio), Effect Embodiment B. The following applies: read-out: GTP-KRAS-G12D:CRAF IC50. The gist of the method:
as §1

Consider 17 compounds from US20230365563A1, “QUINAZOLINE COMPOUND AND APPLICATION THEREOF” (SHANGHAI PHARMACEUTICALS HOLDING CO., LTD., priority 2020, published 2023).

Where a name gives a salt, the structure may show the parent alone.

T3 sequence (P01116 1-188 isoform P01116-2 G12D): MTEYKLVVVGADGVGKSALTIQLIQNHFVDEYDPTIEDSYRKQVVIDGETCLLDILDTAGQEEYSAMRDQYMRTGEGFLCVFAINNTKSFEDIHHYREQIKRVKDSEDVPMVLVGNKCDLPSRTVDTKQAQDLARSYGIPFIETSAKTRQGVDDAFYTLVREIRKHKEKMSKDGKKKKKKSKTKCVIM
T2 sequence (P01116 1-188 isoform P01116-2 G12D): as above
T1 sequence (P01116 1-188 isoform P01116-2): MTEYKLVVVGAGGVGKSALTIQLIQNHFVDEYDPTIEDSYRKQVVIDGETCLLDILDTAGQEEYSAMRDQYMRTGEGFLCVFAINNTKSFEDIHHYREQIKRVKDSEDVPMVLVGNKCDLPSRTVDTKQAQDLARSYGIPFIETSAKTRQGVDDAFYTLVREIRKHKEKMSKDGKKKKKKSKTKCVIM

Turning to `CC(C)CN(C)CCCOc1nc(N2C[C@H]3CC[C@@H](C2)N3)c2cc(Cl)c(-c3cc(O)cc4ccccc34)c(F)c2n1` (single isomer, unassigned) [Compound 115, 4-((S or R)-4-((1R,5S)-3,8-diazacyclo[3.2.1]octan-3-yl)-6-chloro-8-fluoro-2-(3-(isobutyl(methyl)amino)propoxy)quinazolin-7-yl)naphthalen-2-ol dihydrochloride], the IC50 on KRAS_WT and SOS1 worked out at 4130 nM; at KRAS-G12D and SOS1, 67.8 nM; at KRAS_G12D and cRAF, 130 nM.
In the case of `Oc1cc(-c2c(Cl)cc3c(N4CC5CCC(C4)N5)nc(OCCCN4CCC5(CCOC5)C4)nc3c2F)c2ccccc2c1` (single isomer, unassigned) [Compound 270, (4R or 4S)-4-(2-(3-(2-oxo-7-azaspiro[4.4]nonan-7-yl)propoxy)-4-(1R,5S)-3,8-diazacyclo[3.2.1]octan-3-yl)-6-chloro-8-fluoroquinazolin-7-yl)naphthalen-2-ol diformate], the IC50 was 1210 nM at KRAS_WT and SOS1; 43.1 nM at KRAS-G12D and SOS1; 202 nM on KRAS_G12D and cRAF.
With `C[C@H]1C[C@@H](COc2nc(N3CC4CCC(C3)N4)c3cnc(-c4cc(O)cc5ccccc45)c(F)c3n2)N(C)C1` [Compound 133, 4-(4-((1R,5S)-3.8-diazabicyclo[3.2.1]octan-3-yl)-2-((2S,4S)-1,4-dimethylpyrrolidin-2-yl)methoxy)-8-fluoropyridinyl[4,3-d]pyrimidin-7-yl)naphthalen-2-ol trifluoroacetate], the IC50 at KRAS_WT and SOS1 amounted to 85.4 nM; at KRAS-G12D and SOS1, 19.3 nM; at KRAS_G12D and cRAF it was 18.7 nM.
In the same order, the values of `Oc1cc(-c2c(Cl)cc3c(N4CC5CCC(C4)N5)nc(OCC4CCC5COCCN5C4)nc3c2F)c2ccccc2c1` (single isomer, unassigned) [Compound 264a, 4-((S or R)-4-((1R,5S)-3,8-diazacyclo[3.2.1]octan-3-yl)-6-chloro-8-fluoro-2-((7S or 7R, 9aS or 9aR)-octahydropyridine[2,1-c][1,4]oxazin-7-yl)methoxy)quinazolin-7-yl)naphthalen-2-ol formate] are 342 nM, 11.7 nM and 32.1 nM.
In the same order, the values of `C[C@@H]1CN(CCCOc2nc(N3CC4CCC(C3)N4)c3cc(Cl)c(-c4cc(O)cc5ccccc45)c(F)c3n2)C[C@H](C)O1` (single isomer, unassigned) [Compound 125, 4-((S or R)-4-((1R,5S)-3,8-diazacyclo[3.2.1]octan-3-yl)-6-chloro-2-(3-((2S,6R)-2,6-dimethylmorpholine)propoxy)-8-fluoroquinolin-7-yl)naphthalen-2-ol hydrochloride] are 1680 nM, 52.7 nM and 170 nM.
As for `C=CCN1CCC[C@H]1COc1nc(N2CC3CCC(C2)N3)c2cc(F)c(-c3cc(O)cc4ccc(F)c(CC)c34)c(F)c2n1` (single isomer, unassigned) [Compound 287a, 4-((S or R)-2-((S)-1-allylpyrrolidin-2-yl)methoxy)-4-((1R,5S)-3,8-diazacyclo[3.2.1]octan-3-yl)-6,8-difluoroquinazolin-7-yl)-5-ethyl-6-fluoronaphthalen-2-ol dihydrochloride], the IC50 on KRAS_WT and SOS1 worked out at 29.1 nM; on KRAS-G12D and SOS1 it was 10.1 nM; at KRAS_G12D and cRAF, 11.3 nM.
For `CCc1c(F)ccc2cc(O)cc(-c3c(F)cc4c(N5CC6CCC(C5)N6)nc(OC[C@H](C)CN5C6CCC5COC6)nc4c3F)c12` (single isomer, unassigned) [Compound 229a, 4-((7S or 7R)-2-((2R)-3-(3-oxa-8-azabicyclo[3.2.1]octan-8-yl)-2-methylpropoxy)-4-((1R,5S)-3,8-diazabicyclo[3.2.1]octan-3-yl)-6,8-difluoroquinazolin-7-yl)-5-ethyl-6-fluoronaphththalen-2-ol formate], the IC50 at KRAS_WT and SOS1 turned out to be 160 nM; on KRAS-G12D and SOS1, 16.4 nM; on KRAS_G12D and cRAF, 11.8 nM.
For `Oc1cc(-c2c(Cl)cc3c(N4C[C@H]5CC[C@@H](C4)N5)nc(OCCCN4C[C@@H]5C[C@H]4CO5)nc3c2F)c2ccccc2c1` (single isomer, unassigned) [Compound 165, (R or S)-4-(2-(3-((1S,4S)-2-oxa-5-azabicyclo[2.2.1]heptan-5-yl)propoxy)-4-((1R,5S)-3,8-diazabicyclo[3.2.1]octan-3-yl)-6-chloro-8-fluoroquinazolin-7-yl)naphthalen-2-ol dihydrochloride], in that order: 1880 nM, 27.8 nM and 85.4 nM.
In the same order, the values of `Oc1cc(-c2c(Cl)cc3c(N4CC5CCC(C4)N5)nc(OCCC4(N5CCCC5)CC4)nc3c2F)c2ccccc2c1` (single isomer, unassigned) [Compound 117, 4-((S or R)-4-((1R,5S)-3,8-diazabicyclo[3.2.1]octan-3-yl)-6-chloro-8-fluoro-2-(2-(1-(pyrrolidin-1-yl)cyclopropyl)ethoxy)quinazolin-7-yl)naphthalen-2-ol dihydrochloride] are 2130 nM, 59.3 nM and 134 nM.
For `C[C@@H](COc1nc(N2C[C@H]3CC[C@@H](C2)N3)c2cc(Cl)c(-c3cc(O)cc4ccccc34)c(F)c2n1)CN1[C@@H]2CCC[C@H]1COC2` (single isomer, unassigned) [Compound 210, (S or R) 4-(2-((R)-3-((1R,5S)-3-oxa-9-azabicyclo[3.3.1]nonan-9-yl)-2-methylpropoxy)-4-((1R,5S)-3,8-diazabicyclo[3.2.1]octan-3-yl)-6-chloro-8-fluoroquinazolin-7-yl)naphthalen-2-ol diformate], in that order: 2070 nM, 17.8 nM and 17.8 nM.
On to `C[C@@H]1C[C@@H](COc2nc(N3CC4CCC(C3)N4)c3cnc(-c4cc(O)cc5ccccc45)c(F)c3n2)N(C)C1` [Compound 142, 4-(4-((1R,5S)-3,8-diazabicyclo[3.2.1]octan-3-yl)-2-((2S,4R)-1,4-methylpyrrolidin-2-yl)methoxy)-8-fluoropyridinyl[4,3-d]pyrimidin-7-yl)naphthalen-2-ol diformate], for which the IC50 on KRAS_WT and SOS1 is 394 nM; at KRAS-G12D and SOS1, 16 nM; on KRAS_G12D and cRAF, 30.5 nM.
For `CN(CCCOc1nc(N2CC3CCC(C2)N3)c2cc(Cl)c(-c3cc(O)cc4ccccc34)c(F)c2n1)CCC(O)CO` (single isomer, unassigned) [Compound 148, 4-((3-((S or R)-4-((1R,5S)-3,8-diazabicyclo[3.2.1]octan-3-yl)-6-chloro-8-fluoro-7-(3-hydroxynaphthalen-1-yl)quinazolin-2-yl)oxy)propyl)(methyl)amino)butan-1,2-diol ditrifluoroacetate], in that order: 2970 nM, 28.6 nM and 122 nM.
In the same order, the values of `CN(C)CCCNc1nc(N2C[C@H]3CC[C@@H](C2)N3)c2cc(Cl)c(-c3cc(O)cc4ccccc34)c(F)c2n1` (single isomer, unassigned) [Compound 55a, (S or R) 4-(4-((1R,5S)-3,8-diazabicyclo[3.2.1]octan-3-yl)-6-chloro-2-((3-(dimethylamino)propyl)amino)-8-fluoroquinazolin-7-yl)naphthalen-2-ol] are more than 100000 nM, 1120 nM and 9950 nM.
In the same order, the values of `CO[C@@H](COc1nc(N2CC3CCC(C2)N3)c2cc(Cl)c(-c3cc(O)cc4ccccc34)c(F)c2n1)CN1C2CCCC1CC2` (single isomer, unassigned) [Compound 257, (4S or 4R)-4-(2-((2R)-3-(8-azabicyclo[3.2.1]octan-8-yl)-2-methoxypropoxy)-4-((1R,5S)-3,8-diazabicyclo[3.2.1]octan-3-yl)-6-chloro-8-fluoroquinazolin-7-yl)naphthalen-2-ol formate] are more than 10000 nM, 64.8 nM and 296 nM.
With `C=CCCOCCCN1CCC[C@H]1COc1nc(N2CC3CCC(C2)N3)c2cc(F)c(-c3cc(O)cc4ccc(F)c(CC)c34)c(F)c2n1` (single isomer, unassigned) [Compound 249, 4-((S or R)-4-((1R,5S)-3,8-diazacyclo[3.2.1]octan-3-yl)-2-((S)-1-(3-(but-3-en-1-oxy)propyl)pyrrolidin-2-yl)methoxy)-6,8-difluoroquinazolin-7-yl)-5-ethyl-6-fluoronaphthalen-2-ol dihydrochloride], the IC50 came out at 84.6 nM on KRAS_WT and SOS1; 23.7 nM at KRAS-G12D and SOS1; 16.4 nM on KRAS_G12D and cRAF.
For `Oc1cc(-c2c(Cl)cc3c(N4CC5CCC(C4)N5)nc(OCCCN4CC5CCC4CO5)nc3c2F)c2ccccc2c1` (single isomer, unassigned) [Compound 187a, (R or S)-4-(2-(3-((1S,4S or 1R,4R)-2-oxa-5-azabicyclo[2.2.2]octan-5-yl)propoxy)-4-((1R,5S)-3,8-diazabicyclo[3.2.1]octan-3-yl)-6-chloro-8-fluoroquinazolin-7-yl)naphthalen-2-ol diformate], in that order: 1350 nM, 27.4 nM and 66.2 nM.
For `C[C@H]1CN(CCCOc2nc(N3CC4CCC(C3)N4)c3cc(Cl)c(-c4cc(O)cc5ccccc45)c(F)c3n2)CCO1` (single isomer, unassigned) [Compound 246, 4-((S or R)-4-((1R,5S)-3,8-diazacyclo[3.2.1]octan-3-yl)-6-chloro-8-fluoro-2-(3-((S)-2-methylmorpholinyl)propoxy)quinazolin-7-yl)naphthalen-2-ol formate], in that order: 3700 nM, 37.4 nM and 218 nM.
